Where two headings read alike, the source gives them in different places.
How the values were obtained:
[1] = test system: Asexual parasites of P. falciparum strain 3D7; assay: In vitro drug activity on asexual parasites (SYBR Green assay); format: cell-based, Plasmodium falciparum
Protocol: Cell culture. Asexual parasites of P. falciparum strain 3D7 were cultured as described previously [Trager W, et al., Journal of Parasitology 2005, 91: 484-486], Stage III-V gametocytes were selected and enriched with 3-day treatment with 50 mM N-acetylglucosamine (NAG) and the following Percoll density gradient centrifugation after gametocyte production [Tanaka T Q, et al., Molecular and Biochemical Parasitology, 2011, 111: 160-163], Gametocytes of HB3 and Dd2 strains were produced and then set up for assay in a similar process. HepG2 cells (ATCC, cat. no. 77400) were cultured in 175-cm^2 tissue culture flasks with 30 ml growth medium at 37° C. in a 5% CO2 humidified atmosphere. Growth medium was made with Dulbecco's Modified Eagle Medium with 10% fetal bovine serum (FBS). Growth medium was replaced every other day and cells were passed at 75% confluence.
Asexual parasites of P. falciparum strain 3D7 were cultured as described previously (Trager, W. et al., J. Parasitol. 2005, 91(3): 484-486). Drug activity on asexual stage parasites was tested using a SYBR Green assay as described previously (Eastman, R. T. et al., Antimicrob. Agents Chemother. 2013, 57(1): 425-435; Smilkstein, M. et al., Antimicrob. Agents Chemother. 2004, 48(5): 1803-1806). Briefly, parasites were diluted to 0.5% parasitemia in complete culture medium with 2% hematocrit and drugs diluted in DMSO (≤0.5%) and were loaded into a 96-well plate (200 μl/well). No drug and RBC alone wells were included as positive and background controls, respectively, and each testing condition was examined in duplicated. After 72 h incubation under the standard culture condition and a freeze-thaw lysis step at −80° C. and room temperature, 100 μl/well of lysis buffer containing SYBR Green I was added to the parasite culture and incubated for 30 min at room temperature. The fluorescence of each well was measured at 520 nm following excitation at 490 nm using a FLUOstar Optima™ microplate reader (BMG Labtech).

mTOR = mTOR (Homo sapiens, UniProt P42345); assay: mTOR activity (no method described); format: biochemical
[2] = Microsomal stability (rat); format: in vitro ADME; conditions: rat microsomes
Solubility at pH 7.4 = format: physicochemical
[3] = P. falciparum 3D7 asexual parasites, 72 h, SYBR Green

Row | SMILES | EC50 [1] [nM] | mTOR (mTOR) [µM] | Microsomal Stability (rat) T1/2 [2] [min] | Sol @ pH 7.4 (Solubility at pH 7.4) [ug/mL] | EC50 [1, 3] [nM]
1 | O=C(c1ccc(-n2c(=O)ccc3cnc4ccc(-c5ccc(Cl)cc5)cc4c32)cc1)N1CCC(O)CC1 [Compound 302] | 16.4 | 1.595 | 12 | <1 | 
2 | CC(=O)N1CCN(c2cc(C)c(-n3c(=O)n(C)c4cnc5ccc(-c6ccc(Cl)cc6)cc5c43)cc2C#N)CC1 [Compound 429] | 10.5 | 12.57 |  |  | 
3 | COc1cc(C(=O)NCCCN(C)C)ccc1-n1c(=O)ccc2cnc3ccc(-c4ccc(Cl)cc4)cc3c21 [Compound 230] | 98.2 | 50 |  |  | 
4 | COc1cc(C(=O)NCCN2CCN(C)CC2)ccc1-n1c(=O)ccc2cnc3ccc(-c4ccc(Cl)cc4)cc3c21 [Compound 252] |  | 100 |  |  | 
5 | CCN(CC)CCCNC(=O)c1ccc(-n2c(=O)ccc3cnc4ccc(-c5ccc(Cl)cc5)cc4c32)cc1 [Compound 266] | 58.3 | 3.013 | 2.8 | 0 | 
6 | Cc1ccc(C#N)cc1-n1c(=O)n(C)c2cnc3ccc(-c4cccn4C)cc3c21 [Compound 420] | 144 | 30.22 |  |  | 
7 | N#Cc1cc(-n2c(=O)ccc3cnc4ccc(-c5ccc(Cl)cc5)cc4c32)ccc1C(=O)N1CCOCC1 [Compound 271] | 613 | 16.14 | 14 | 0 | 
8 | CN1CCN(CCCNC(=O)c2ccc(-n3c(=O)ccc4cnc5ccc(-c6ccc(Cl)cc6)cc5c43)cc2)CC1 [Compound 262] | 214 | 5.399 | 4.3 | 0 | 
9 | N#Cc1cc(-n2c(=O)ccc3cnc4ccc(-c5ccc(Cl)cc5)cc4c32)ccc1C(=O)NC1CC1 [Compound 312] | 1850 | 500 |  |  | 
10 | Cn1c(=O)n(-c2ccc(N3CCNCC3)c(C#N)c2)c2c3cc(-c4cccc(C#N)c4)ccc3ncc21 [Compound 418] | 7.93 | 0.7002 |  |  | 
11 | O=C(NCCN1CCNCC1)c1ccc(-n2c(=O)ccc3cnc4ccc(-c5ccc(Cl)cc5)cc4c32)cc1 [Compound 98] | 19.3 | 0.994 | >30 | 0 | 
12 | Cc1cc(C(=O)NCCN2CCNCC2)ccc1-n1c(=O)ccc2cnc3ccc(-c4ccc(Cl)cc4)cc3c21 [Compound 313] | 39 | 1.429 |  |  | 
13 | COc1cc(C(=O)NCCCN2CCS(=O)(=O)CC2)ccc1-n1c(=O)ccc2cnc3ccc(-c4ccc(Cl)cc4)cc3c21 [Compound 226] | 208 | 8.446 |  |  | 
14 | CCC(=O)N(C)CCNC(=O)c1ccc(-n2c(=O)ccc3cnc4ccc(-c5ccc(Cl)cc5)cc4c32)cc1 [Compound 310] | 414 | 3.373 |  |  | 
15 | Cc1cc(NCCN(C)C)c(C#N)cc1-n1c(=O)n(C)c2cnc3ccc(-c4cccc(C#N)c4)cc3c21 [Compound 430] | 58.5 | 4.622 |  |  | 
16 | CC(=O)N1CCN(c2cc(C)c(-n3c(=O)n(C)c4cnc5ccc(-c6ccc(F)cc6)cc5c43)cc2C#N)CC1 [Compound 422] | 5.87 | 1.87 |  |  | 
17 | COc1cc(C(=O)NCCCN(CCO)CCO)ccc1-n1c(=O)ccc2cnc3ccc(-c4ccc(Cl)cc4)cc3c21 [Compound 227] | 66.5 | 16 |  |  | 
18 | CCC(=O)N(CC)CCNC(=O)c1ccc(-n2c(=O)ccc3cnc4ccc(-c5ccc(Cl)cc5)cc4c32)cc1 [Compound 305] | 483 | 4.727 |  |  | 
19 | O=C(NC1CC1)c1ccc(-n2c(=O)ccc3cnc4ccc(-c5ccc(Cl)c(F)c5)cc4c32)cc1 [Compound 308] | 23.6 | 2.099 |  |  | 
20 | O=C(c1ccc(-n2c(=O)ccc3c(O)nc4ccc(-c5ccc(Cl)cc5)cc4c32)cc1)N1CCOCC1 [Compound 294] | 2050 | 4.586 | 8.4 | 0 | 
21 | Cc1cc(N2CC(N)C2)c(C#N)cc1-n1c(=O)n(C)c2cnc3ccc(-c4cccc(C#N)c4)cc3c21 [Compound 426] | 29.4 | 6.418 |  |  | 
22 | CN1CCN(CCNC(=O)c2ccc(-n3c(=O)ccc4cnc5ccc(-c6ccc(Cl)cc6)cc5c43)cc2)CC1 [Compound 264] | 56.6 | 1.321 | 4.5 | 0 | 
23 | Cc1cc(N2CC(N)C2)c(C#N)cc1-n1c(=O)n(C)c2cnc3ccc(-c4ccc(F)cc4)cc3c21 [Compound 428] | 27.8 | 11 |  |  | 

Row | SMILES | EC50 [1] [nM] | mTOR (mTOR) [µM] | Microsomal Stability (rat) T1/2 [2] [min] | Sol @ pH 7.4 (Solubility at pH 7.4) [ug/mL] | EC50 [1, 3] [nM]
24 | NC1(c2ccc(-c3ccc4ncc5ccc(=O)n(-c6ccc7c(c6)CNS7(=O)=O)c5c4c3)cc2)CC1 [Compound 383] |  |  |  |  | 62.3
25 | CN(C)CCN(C)C(=O)c1ccc(-n2c(=O)ccc3cnc4ccc(-c5ccc(Cl)cc5)cc4c32)cc1 [Compound 299] | 55.3 | 5.83 |  |  | 
26 | O=C1c2ccc(-n3c(=O)ccc4cnc5ccc(-c6ccc(Cl)cc6)cc5c43)cc2C(=O)N1C1CC1 [Compound 384] |  |  |  |  | 1320
27 | Cc1cc(N2CCNCC2)c(C#N)cc1-n1c(=O)n(C)c2cnc3ccc(-c4ccc(F)c(C#N)c4)cc3c21 [Compound 427] | 75.2 | 30.6 |  |  | 
28 | O=C(NC1CC1)c1ccc(-n2c(=O)ccc3cnc4ccc(-c5ccc(Cl)cc5)cc4c32)cn1 [Compound 315] | 137 | 100 |  |  | 
29 | COc1cc(C(=O)NCCCN2CCCCC2)ccc1-n1c(=O)ccc2cnc3ccc(-c4ccc(Cl)cc4)cc3c21 [Compound 229] | 232 | 19.25 |  |  | 
30 | COc1cc(C(=O)NCCN(C)C)ccc1-n1c(=O)ccc2cnc3ccc(-c4ccc(F)c(O)c4)cc3c21 [Compound 316] | 412 | 8.154 |  |  | 
31 | Cc1ccc(C#N)cc1-n1c(=O)n(C)c2cnc3ccc(-c4ccsc4)cc3c21 [Compound 424] | 23 | 12.51 |  |  | 
32 | CC(C)(O)CNC(=O)c1ccc(-n2c(=O)ccc3cnc4ccc(-c5ccc(Cl)cc5)cc4c32)cc1 [Compound 311] | 53.3 | 0.1982 |  |  | 
33 | Cc1ccc(C#N)cc1-n1c(=O)n(C)c2cnc3ccc(-c4ccc[nH]4)cc3c21 [Compound 419] | 82.9 | 30.38 |  |  | 
34 | COc1cc(C(=O)NCCN(C)C)ccc1-n1c(=O)ccc2cnc3ccc(-c4ccc(Cl)cc4)cc3c21 [Compound 317] | 202 | 8.572 |  |  | 
35 | CCN(CCN(C)C)C(=O)c1ccc(-n2c(=O)ccc3cnc4ccc(-c5ccc(Cl)cc5)cc4c32)cc1 [Compound 300] | 32.7 | 3.792 |  |  | 
36 | Nc1nc2ccc(-c3ccc(Cl)cc3)cc2c2c1ccc(=O)n2-c1ccc(C(=O)N2CCOCC2)cc1 [Compound 314] | 429 | 0.78 |  |  | 
37 | O=C(NCCN1CCCC1=O)c1ccc(-n2c(=O)ccc3cnc4ccc(-c5ccc(Cl)cc5)cc4c32)cc1 [Compound 309] | 554 | 3.824 |  |  | 
38 | CC(=O)N1CCN(c2cc(C)c(-n3c(=O)n(C)c4cnc5ccc(-c6cccc(C#N)c6)cc5c43)cc2C#N)CC1 [Compound 423] | 50.4 | 15.4 |  |  | 
39 | Cc1ccc(C#N)cc1-n1c(=O)n(C)c2cnc3ccc(-c4ccoc4)cc3c21 [Compound 425] | 48.4 | 5 |  |  | 
40 | Cc1ccc(C#N)cc1-n1c(=O)n(C)c2cnc3ccc(-c4cccc(S(N)(=O)=O)c4)cc3c21 [Compound 433] | 17.1 | 6.1 |  |  | 
41 | N#CC1(NC(=O)c2ccc(-n3c(=O)ccc4cnc5ccc(-c6ccc(Cl)cc6)cc5c43)cc2)CC1 [Compound 304] | 19.2 | 0.8535 |  |  | 
42 | Cc1cc(N2CCNCC2)c(C#N)cc1-n1c(=O)n(C)c2cnc3ccc(-c4cccs4)cc3c21 [Compound 421] | 18.9 | 18.94 |  |  | 
43 | CN1CCN(Cc2ccc(-c3ccc4ncc5ccc(=O)n(-c6ccc(C(=O)NC7CC7)cc6)c5c4c3)cc2)CC1 [Compound 307] | 191 | 39.9 |  |  | 
44 | O=C(NCCC1CCN(C2COC2)CC1)c1ccc(-n2c(=O)ccc3cnc4ccc(-c5ccc(Cl)cc5)cc4c32)cc1 [Compound 306] | 100 | 8.864 |  |  | 
45 | CCN(CC)CCCNC(=O)c1ccc(-n2c(=O)ccc3cnc4ccc(-c5ccc(Cl)cc5)cc4c32)c(OC)c1 [Compound 228] | 195 | 11.22 |  |  | 

Source: US11753408B2, “Compounds and method for blocking transmission of malarial parasite” (The United States of America, as represented by the …, priority 2016, dated 2023)
